The structures appear in SMILES notation.

The first assay deals with tumor endothelial cells (LL/2 lung cancer tumor). The assay is described as follows: Lung LL2 ex vivo model of tumor angiogenesis. It counts as cell-based, mouse. As to conditions: Lung LL2 ex vivo; Conc. 10 μm; 48 hrs. In a few lines:
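Read-out is live/dead fluorescence imaging (fluorescein diacetate green, propidium iodide red, 10 min at 37° C) at 2×, taken e.g. 48 h after drug addition. Fragments of mouse LL2 tumor are cultured in Matrigel with endothelial growth medium, usually 4 days, until new endothelial cells grow out, then treated.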
Turning to `CCCCCCCCCCOc1ccc(S(=O)(=O)c2cnc3ccc([S+](C)[O-])cc3c2N2CCC(N3CCC(N4CCCCC4)CC3)CC2)cc1F` (stereo not drawn) [compound 290, ([1,4′:1′,4″-terpiperidin]-1″-yl)-3-((4-(decyloxy)-3-fluorophenyl)sulfonyl)-6-(methylsulfinyl)quinoline], the “48 hrs (morphology observations after 48 hours)” value is on record as “*** (100% of endothelial cells vesicularize in cell shape)”.

The same assay, now with this note: Lung LL2 ex vivo; Conc. 10 μm; drug treatment two days.
For `CCCCCCCCCCOc1ccc(S(=O)(=O)c2cnc3ccc([S+](C)[O-])cc3c2N2CCC(N3CCC(N4CCCCC4)CC3)CC2)cc1F` (stereo not drawn) [compound 290, ([1,4′:1′,4″-terpiperidin]-1″-yl)-3-((4-(decyloxy)-3-fluorophenyl)sulfonyl)-6-(methylsulfinyl)quinoline], the Cell death was 50%.

Staying with this assay, now noted: Lung LL2 ex vivo; Conc. 20 μm; (24 hrs).
Regarding `CCCCCCCCCCOc1ccc(S(=O)(=O)c2cnc3ccc([S+](C)[O-])cc3c2N2CCC(N3CCN(CCO)CC3)CC2)cc1F` (stereo not drawn) [compound 291, 2-(4-(1-(3-((4-(decyloxy)-3-fluorophenyl)sulfonyl)-6-(methylsulfinyl)quinolin-4-yl)piperidin-4-yl)piperazin-1-yl)ethan-1-ol], the “Cell death (24 hrs)” value is reported as 10% and the “Morphology observations (24 hrs)” value is “* (50% or less of cells vesicularize in cell shape)”. On to `CCCCCCCCCCOc1ccc(S(=O)(=O)c2cnc3ccc([S+](C)[O-])cc3c2N2CCC(N3CCC(N4CCN(CCO)CC4)CC3)CC2)cc1` (stereo not drawn) [compound 292, 2-(4-(1′-(3-((4-(decyloxy)phenyl)sulfonyl)-6-(methylsulfinyl)quinolin-4-yl)-[1,4′-bipiperidin]-4-yl)piperazin-1-yl)ethan-1-ol], for which the “Cell death (24 hrs)” value amounted to 10% and the “Morphology observations (24 hrs)” value is “* (50% or less of cells vesicularize in cell shape)”.

Staying with this assay, now noted: Lung LL2 ex vivo; Conc. 40 μm; drug treatment two days.
As for `COc1ccc(S(=O)(=O)c2cnc3cc(OC)c(OC)cc3c2N2CCCN(c3nc4ccc(Cl)cc4s3)CC2)cc1` [compound 327, 6-chloro-2-(4-(6,7-dimethoxy-3-((4-methoxyphenyl)sulfonyl)quinolin-4-yl)-1,4-diazepan-1-yl)benzo[d]thiazole], the Cell death is 20%.

Staying with this assay, now noted: Mus musculus, Endothelial cell, 48 h, read-out: Cell death.
For `CCN(c1c(S(=O)(=O)c2ccc(OC)cc2)cnc2cc(OC)c(OC)cc12)C(C)C` [compound 294, N-ethyl-N-isopropyl-6,7-dimethoxy-3-((4-methoxyphenyl)sulfonyl)quinolin-4-amine], the cytotoxicity at 40 µM came to 50%. Consider `CCN(CC)CCN(CC)c1c(S(=O)(=O)c2ccc(OC)cc2)cnc2cc(OC)c(OC)cc12` [compound 296, N1-(6,7-dimethoxy-3-((4-methoxyphenyl)sulfonyl)quinolin-4-yl)-N1,N2,N2-triethylethane-1,2-diamine], for which the cytotoxicity at 40 µM stood at 20%.

Turning to `CCN(CC)CCC(C)Nc1c(S(=O)(=O)c2ccc(OC)cc2)cnc2cc(OC)c(OC)cc12` (stereo not drawn) [compound 300, N3-(6,7-dimethoxy-3-((4-methoxyphenyl)sulfonyl)quinolin-4-yl)-N1,N1-diethylbutane-1,3-diamine], the cytotoxicity at 40 µM is 20%. Same read-out and setting: the result for `CCN(CC)CCCN1CCN(c2c(S(=O)(=O)c3ccc(OC)cc3)cnc3cc(OC)c(OC)cc23)CC1` [compound 302, 3-(4-(6,7-dimethoxy-3-((4-methoxyphenyl)sulfonyl)quinolin-4-yl)piperazin-1-yl)-N,N-diethylpropan-1-amine] reads 70%; that for `COc1ccc(S(=O)(=O)c2cnc3cc(OC)c(OC)cc3c2N2C[C@@H]3C[C@H]2CN3C)cc1` [compound 306, 6,7-dimethoxy-3-((4-methoxyphenyl)sulfonyl)-4-((1S,4S)-5-methyl-2,5-diazabicyclo[2.2.1]heptan-2-yl)quinoline], 40%; that for `COc1ccc(S(=O)(=O)c2cnc3cc(OC)c(OC)cc3c2N2CCC(O)(c3ccccc3)CC2)cc1` [compound 308, 1-(6,7-dimethoxy-3-((4-methoxyphenyl)sulfonyl)quinolin-4-yl)-4-phenylpiperidin-4-ol], 20%. Same read-out and setting: the result for `CNC(=O)c1ccc(C2CCN(c3c(S(=O)(=O)c4ccc(OC)cc4)cnc4cc(OC)c(OC)cc34)CC2)cc1` [compound 310, 4-(1-(6,7-dimethoxy-3-((4-methoxyphenyl)sulfonyl)quinolin-4-yl)piperidin-4-yl)-N-methylbenzamide] reads 10%; that for `COc1ccc(C2CCN(c3c(S(=O)(=O)c4ccc(OC)cc4)cnc4cc(OC)c(OC)cc34)CC2)cc1` [compound 311, 6,7-dimethoxy-4-(4-(4-methoxyphenyl)piperidin-1-yl)-3-((4-methoxyphenyl)sulfonyl)quinoline], 30%; that for `COc1ccc(S(=O)(=O)c2cnc3cc(OC)c(OC)cc3c2N2CCC(c3ccc(CN4CCCC4)cc3)CC2)cc1` [compound 312, 6,7-dimethoxy-3-((4-methoxyphenyl)sulfonyl)-4-(4-(4-(pyrrolidin-1-ylmethyl)phenyl)piperidin-1-yl)quinoline], 100%. As for `CCOC(=O)c1ccc(N2CCN(c3c(S(=O)(=O)c4ccc(OC)cc4)cnc4cc(OC)c(OC)cc34)CC2)cc1` [compound 317, ethyl 4-(4-(6,7-dimethoxy-3-((4-methoxyphenyl)sulfonyl)quinolin-4-yl)piperazin-1-yl)benzoate], the cytotoxicity at 40 µM turned out to be 30%. For `COc1ccc(N2CCN(c3c(S(=O)(=O)c4ccc(OC)cc4)cnc4cc(OC)c(OC)cc34)CC2=O)cc1` [compound 318], the cytotoxicity at 40 µM is 30%.

In the case of `COc1ccc(S(=O)(=O)c2cnc3cc(OC)c(OC)cc3c2N2CCC(N3CCCCC3)CC2)cc1` [compound 320, 4-([1,4′-bipiperidin]-1′-yl)-6,7-dimethoxy-3-((4-methoxyphenyl)sulfonyl)quinoline], the cytotoxicity at 40 µM was determined as 30%. Same read-out and setting: the result for `COc1ccc(S(=O)(=O)c2cnc3cc(OC)c(OC)cc3c2N2CCC(N3CCCC3=O)CC2)cc1` [compound 321, 1-(1-(6,7-dimethoxy-3-((4-methoxyphenyl)sulfonyl)quinolin-4-yl)piperidin-4-yl)pyrrolidin-2-one] reads 40%; that for `COc1ccc(S(=O)(=O)c2cnc3cc(OC)c(OC)cc3c2N2CCC(N3CCCC3CO)CC2)cc1` (stereo not drawn) [compound 322, (1-(1-(6,7-dimethoxy-3-((4-methoxyphenyl)sulfonyl)quinolin-4-yl)piperidin-4-yl)pyrrolidin-2-yl)methanol], 30%; that for `COc1ccc(S(=O)(=O)c2cnc3cc(OC)c(OC)cc3c2N2CCCN(CCO)CC2)cc1` [compound 323, 2-(4-(6,7-dimethoxy-3-((4-methoxyphenyl)sulfonyl)quinolin-4-yl)-1,4-diazepan-1-yl)ethan-1-ol], 30%. Still for that read-out and setting: the result for `COc1ccc(S(=O)(=O)c2cnc3cc(OC)c(OC)cc3c2N2CCC3C(COCCN3CC(C)C)C2)cc1` (stereo not drawn) [compound 324, 7-(6,7-dimethoxy-3-((4-methoxyphenyl)sulfonyl)quinolin-4-yl)-1-isobutyldecahydropyrido[4,3-e][1,4]oxazepine] reads 60%; that for `COc1ccc(S(=O)(=O)c2cnc3cc(OC)c(OC)cc3c2N2CCCN(CC3(O)CCCC3)CC2)cc1` [compound 325, 1-((4-(6,7-dimethoxy-3-((4-methoxyphenyl)sulfonyl)quinolin-4-yl)-1,4-diazepan-1-yl)methyl)cyclopentan-1-ol], 30%. Still for that read-out and setting: the result for `COc1ccc(S(=O)(=O)c2cnc3cc(OC)c(OC)cc3c2N2CCCN(C3COC3)CC2)cc1` [compound 326, 6,7-dimethoxy-3-((4-methoxyphenyl)sulfonyl)-4-(4-(oxetan-3-yl)-1,4-diazepan-1-yl)quinoline] reads 30%; that for `COc1ccc(S(=O)(=O)c2cnc3cc(OC)c(OC)cc3c2N2CCC(=O)N(C)CC2)cc1` [compound 328, 1-(6,7-dimethoxy-3-((4-methoxyphenyl)sulfonyl)quinolin-4-yl)-4-methyl-1,4-diazepan-5-one], 30%.

On to `COc1ccc(S(=O)(=O)c2cnc3cc(OC)c(OC)cc3c2N2CCCN(C3CCSCC3)CC2)cc1` [compound 329, 6,7-dimethoxy-3-((4-methoxyphenyl)sulfonyl)-4-(4-(tetrahydro-2H-thiopyran-4-yl)-1,4-diazepan-1-yl)quinoline], for which the cytotoxicity at 40 µM turned out to be 40%. On the same count and under the same terms, the result for `COc1ccc(S(=O)(=O)c2cnc3cc(OC)c(OC)cc3c2N2CCCN(C3CCS(=O)(=O)CC3)CC2)cc1` [compound 330, 4-(4-(6,7-dimethoxy-3-((4-methoxyphenyl)sulfonyl)quinolin-4-yl)-1,4-diazepan-1-yl)tetrahydro-2H-thiopyran 1,1-dioxide] reads 50%; that for `COc1ccc(S(=O)(=O)c2cnc3ccc(C(=O)N(C)C)cc3c2N2CCC(N3CCCCC3)CC2)cc1` [compound 331, 4-([1,4′-bipiperidin]-1′-yl)-3-((4-methoxyphenyl)sulfonyl)-N,N-dimethylquinoline-6-carboxamide], 10%; that for `COc1ccc(S(=O)(=O)c2cnc3ccc(C(=O)N(C)C)cc3c2N2CCC(N3CCCC3=O)CC2)cc1` [compound 332, 3-((4-methoxyphenyl)sulfonyl)-N,N-dimethyl-4-(4-(2-oxopyrrolidin-1-yl)piperidin-1-yl)quinoline-6-carboxamid], 0%. The same measure, in the same setting: the result for `COc1ccc(S(=O)(=O)c2cnc3ccc(C(=O)N(C)C)cc3c2N2CCCN(CC(=O)N(C)C)CC2)cc1` [compound 333, 4-(4-(2-(dimethylamino)-2-oxoethyl)-1,4-diazepan-1-yl)-3-((4-methoxyphenyl)sulfonyl)-N,N-dimethylquinoline-6-carboxamide] reads 0%; that for `CNC(=O)c1ccc2ncc(S(=O)(=O)c3ccc(OC)cc3)c(N3CCC(N4CCCC4CO)CC3)c2c1` (stereo not drawn) [compound 336, 4-(4-(2-(hydroxymethyl)pyrrolidin-1-yl)piperidin-1-yl)-3-((4-methoxyphenyl)sulfonyl)-N-methylquinoline-6-carboxamide], 0%.

With `CCCCCCCCCCCCOc1ccc(S(=O)(=O)c2cnc3ccc([S+](C)[O-])cc3c2N2CCC(N3CCN(CCO)CC3)CC2)cc1` (stereo not drawn) [compound 339, 2-(4-(1-(3-((4-(dodecyloxy)phenyl)sulfonyl)-6-(methylsulfinyl)quinolin-4-yl)piperidin-4-yl)piperazin-1-yl)ethan-1-ol], the cytotoxicity at 20 µM stood at 50%.

(Values after patent publication US11884647B2, “Compounds and methods for targeting pathogenic blood vessels” (THE REGENTS OF THE UNIVERSITY OF CALIFORNIA, priority 2019, dated 2024).)
